Patent US8202879B2, “Quinazoline derivatives having tyrosine kinase inhibitory activity” (Shionogi & Co., Ltd., priority 2005, dated 2012)
Structures can show the parent of a compound that is named as a salt. Where two headings read alike, the source gives them in different places.

What was measured:
[1] = molecular target: T1, EGFR (Homo sapiens, UniProt P00533); experiment: Enzyme inhibitory activity on EGFR (time resolution fluorescence, biotinylated poly-Glu-Tyr substrate); format: biochemical
T1 construct: purchased Carna Biosciences, Inc; host or cells: insect cell expression system
T1 sequence (P00533 25-1210): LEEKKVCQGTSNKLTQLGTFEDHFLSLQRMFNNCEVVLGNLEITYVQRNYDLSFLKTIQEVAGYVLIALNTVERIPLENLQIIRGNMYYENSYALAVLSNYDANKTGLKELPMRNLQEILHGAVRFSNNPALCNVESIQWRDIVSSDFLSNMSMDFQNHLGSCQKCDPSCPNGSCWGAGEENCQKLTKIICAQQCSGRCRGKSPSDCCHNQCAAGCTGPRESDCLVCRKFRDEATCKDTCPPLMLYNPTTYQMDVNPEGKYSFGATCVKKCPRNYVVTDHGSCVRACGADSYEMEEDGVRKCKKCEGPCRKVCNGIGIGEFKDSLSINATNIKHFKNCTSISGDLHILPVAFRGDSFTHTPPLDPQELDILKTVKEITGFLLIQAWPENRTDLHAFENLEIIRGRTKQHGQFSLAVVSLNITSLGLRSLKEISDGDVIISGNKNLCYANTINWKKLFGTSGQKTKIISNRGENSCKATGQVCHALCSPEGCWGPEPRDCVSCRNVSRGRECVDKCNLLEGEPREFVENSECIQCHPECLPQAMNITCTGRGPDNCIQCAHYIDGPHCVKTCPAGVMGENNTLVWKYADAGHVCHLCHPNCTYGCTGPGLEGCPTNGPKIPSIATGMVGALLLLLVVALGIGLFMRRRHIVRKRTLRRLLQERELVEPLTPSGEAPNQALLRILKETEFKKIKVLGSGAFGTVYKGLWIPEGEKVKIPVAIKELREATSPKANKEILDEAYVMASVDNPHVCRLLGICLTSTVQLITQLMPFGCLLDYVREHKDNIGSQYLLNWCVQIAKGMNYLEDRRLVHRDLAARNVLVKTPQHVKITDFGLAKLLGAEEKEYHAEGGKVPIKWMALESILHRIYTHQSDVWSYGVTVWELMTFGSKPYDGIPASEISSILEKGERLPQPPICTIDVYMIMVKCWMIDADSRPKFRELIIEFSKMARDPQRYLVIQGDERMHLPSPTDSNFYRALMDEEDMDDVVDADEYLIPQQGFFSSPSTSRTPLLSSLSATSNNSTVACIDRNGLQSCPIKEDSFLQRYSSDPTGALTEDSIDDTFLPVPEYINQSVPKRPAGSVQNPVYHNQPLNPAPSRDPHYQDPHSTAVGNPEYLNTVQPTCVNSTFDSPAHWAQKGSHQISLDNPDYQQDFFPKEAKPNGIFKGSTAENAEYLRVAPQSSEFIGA
In short: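 Insect-cell-expressed EGFR phosphorylated biotinylated poly-Glu-Tyr (4:1) for 60 min at room temperature in TBS with MgCl2, MnCl2, Na3VO4 and BSA. Enzyme 250 ng/ml, substrate 3.125 μg/ml and ATP 125 μM as working solutions. EDTA stop; Eu anti-phosphotyrosine/streptavidin-XL time-resolved fluorescence read; 10-point 4-fold dilutions.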

[2] = molecular target: T2, HER2 (Homo sapiens, UniProt P04626); experiment: Enzyme inhibitory activity on HER2 (time resolution fluorescence, biotinylated poly-Glu-Tyr substrate); format: biochemical
T2 construct: purchased Carna Biosciences, Inc; host or cells: insect cell expression system
T2 sequence (P04626 23-1255): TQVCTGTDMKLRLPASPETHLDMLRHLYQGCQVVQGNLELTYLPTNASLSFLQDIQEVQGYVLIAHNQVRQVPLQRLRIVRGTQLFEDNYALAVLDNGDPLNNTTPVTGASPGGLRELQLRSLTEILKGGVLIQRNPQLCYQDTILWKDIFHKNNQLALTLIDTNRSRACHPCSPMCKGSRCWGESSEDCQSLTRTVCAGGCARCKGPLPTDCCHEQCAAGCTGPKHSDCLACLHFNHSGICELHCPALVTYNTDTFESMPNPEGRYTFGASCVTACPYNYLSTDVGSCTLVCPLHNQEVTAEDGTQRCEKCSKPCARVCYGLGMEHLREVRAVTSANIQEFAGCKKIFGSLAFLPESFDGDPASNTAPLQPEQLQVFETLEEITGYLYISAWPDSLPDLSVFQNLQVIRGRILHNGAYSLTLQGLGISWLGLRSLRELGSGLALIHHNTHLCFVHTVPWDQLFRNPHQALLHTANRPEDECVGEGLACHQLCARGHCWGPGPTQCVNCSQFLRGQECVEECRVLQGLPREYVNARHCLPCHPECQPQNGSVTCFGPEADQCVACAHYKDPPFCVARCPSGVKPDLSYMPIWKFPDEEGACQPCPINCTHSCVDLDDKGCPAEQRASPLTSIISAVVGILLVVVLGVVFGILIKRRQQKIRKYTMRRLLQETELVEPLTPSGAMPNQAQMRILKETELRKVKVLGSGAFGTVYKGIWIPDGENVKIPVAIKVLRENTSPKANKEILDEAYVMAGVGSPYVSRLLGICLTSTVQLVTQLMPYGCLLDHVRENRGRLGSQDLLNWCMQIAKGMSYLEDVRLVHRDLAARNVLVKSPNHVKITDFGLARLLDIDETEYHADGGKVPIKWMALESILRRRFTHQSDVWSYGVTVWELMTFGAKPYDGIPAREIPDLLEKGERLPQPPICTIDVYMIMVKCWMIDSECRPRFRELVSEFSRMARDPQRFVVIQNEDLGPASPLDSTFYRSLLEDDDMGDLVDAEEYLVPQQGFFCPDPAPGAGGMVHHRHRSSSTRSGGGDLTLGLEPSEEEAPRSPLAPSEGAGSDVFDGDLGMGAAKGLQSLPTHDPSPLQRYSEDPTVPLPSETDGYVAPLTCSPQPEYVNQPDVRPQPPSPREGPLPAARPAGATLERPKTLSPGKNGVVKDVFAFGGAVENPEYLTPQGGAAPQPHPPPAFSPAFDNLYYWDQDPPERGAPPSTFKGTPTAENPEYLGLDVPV
In short: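 Insect-cell-expressed HER2 (1000 ng/ml working stock) with biotinylated poly-Glu-Tyr (4:1; 3.125 μg/ml stock) and ATP (290 μM solution) in TBS with MgCl2, MnCl2, Na3VO4 and BSA, 60 min at room temperature. 10-point 4-fold dilutions from a 1 mM top solution. Phosphotyrosine detected by TR-FRET with Eu-antibody and streptavidin-XL.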

[3] = system: BT-474; experiment: In vitro cell proliferation inhibition, WST assay; format: cell-based, human; settings: BT-474 cells, cultured for 3 days, read-out: BT-474 (nM) proliferation inhibitory activity (IC50 value)
Description: Test of In Vitro Cell Proliferation Inhibition of Test Compound
As a human-derived cancer cell strain, BT-474 was used. Cells were all cultured in a 37° C., 5% CO2 incubator in a medium in which 10% bovine fetal serum (ICN) and 50 units ml penicillin/60 μg/ml streptomycin solution (GIBCO) were added to Dulbecco's Modified Essential Medium (DMEM, Nacalai Tesque, Inc).

[4] = enzyme reaction at room temperature for 60 minutes
[5] = EGFR purified from insect cell expression system, ATP solution 125 μM, room temperature, 60 minutes
[6] = HER2 purified from insect cell expression system, ATP solution 290 μM, room temperature, 60 minutes

| IC50 [1, 4] | IC50 [2, 4] | IC50 ([3]; Homo sapiens, BT-474, 72 h) | IC50 [1, 5] | IC50 [2, 6] | IC50 [3] | Structure (SMILES) |
| --- | --- | --- | --- | --- | --- | --- |
| 8.4 nM | 7.1 nM | 43 nM |  |  |  | CC#C/C(=N\OCCNCCCN1CCCC1=O)c1ccc2ncnc(Nc3ccc(OCc4ccccn4)c(Cl)c3)c2c1 [VIII-133] |
|  |  |  | 54 nM | 30 nM | 14 nM | CC#C/C(=N\OCCNC1CCN(S(C)(=O)=O)CC1)c1ccc2ncnc(Nc3ccc(OCc4cccc(F)c4)c(Cl)c3)c2c1 [VIII-60] |
| 10 nM | 9 nM | 24 nM |  |  |  | CC#C/C(=N\OCCNCCOC(N)=O)c1ccc2ncnc(Nc3ccc4c(cnn4Cc4cccc(F)c4)c3)c2c1 [VIII-187] |
| 3.5 nM | 3.6 nM | 24 nM |  |  |  | CC#C/C(=N\OCCNCCO)c1ccc2ncnc(Nc3ccc(OCc4ccccn4)c(Cl)c3)c2c1 [VIII-143] |
|  |  |  | 209 nM | 176 nM | 25 nM | CC#C/C(=N\OCCN1CCS(=O)(=O)CC1)c1ccc2ncnc(Nc3ccc(OCc4cccc(F)c4)c(Cl)c3)c2c1 [VIII-95] |
| 37 nM | 35 nM |  |  |  | 61 nM | CCCC#CC(=NOCCNC)c1ccc2ncnc(Nc3ccc(OCc4cccc(F)c4)c(Cl)c3)c2c1 [VIII-127] |
|  |  |  | 197 nM | 223 nM | 22 nM | CC#C/C(=N\OC[C@H]1CS(=O)(=O)CCN1)c1ccc2ncnc(Nc3ccc(OCc4cccc(F)c4)c(Cl)c3)c2c1 [VIII-118] |
|  |  |  | 23 nM | 29 nM | 35 nM | CC#CC(=NOC1CNC(CO)C1)c1ccc2ncnc(Nc3ccc(OCc4cccc(F)c4)c(Cl)c3)c2c1 (stereo not drawn) [VIII-80] |
| 76 nM | 22 nM | 41 nM |  |  |  | CC#C/C(=N\OCC1COCCN1)c1ccc2ncnc(Nc3ccc(Oc4ccc(C)nc4)c(C)c3)c2c1 (stereo not drawn) [VIII-218] |
| 3.8 nM | 3.8 nM | 27 nM |  |  |  | CC#C/C(=N\OC[C@H]1CCCN1C)c1ccc2ncnc(Nc3ccc(OCc4ccccn4)c(Cl)c3)c2c1 [VIII-158] |
|  |  |  | 17 nM | 18 nM | 10 nM | CNCCO/N=C(\C#CCO)c1ccc2ncnc(Nc3ccc(OCc4cccc(F)c4)c(Cl)c3)c2c1 [VIII-121] |
|  |  |  | 74 nM | 83 nM | 24 nM | CC#C/C(=N\OC[C@H]1CCCN1C)c1ccc2ncnc(Nc3ccc(OCc4cccc(F)c4)c(Cl)c3)c2c1 [VIII-91] |
| 9.4 nM | 8.9 nM | 21 nM |  |  |  | CC#C/C(=N\OCCN(C)CCO)c1ccc2ncnc(Nc3ccc(OCc4ccccn4)c(Cl)c3)c2c1 [VIII-145] |
| 21 nM | 21 nM | 53 nM |  |  |  | CC#C/C(=N\OCCNC1CC1)c1ccc2ncnc(Nc3ccc(OCc4ccccn4)c(Cl)c3)c2c1 [VIII-136] |
|  |  |  | 7.9 nM | 13.8 nM | 14 nM | CC#C/C(=N\OC[C@@H](COC)NC)c1ccc2ncnc(Nc3ccc(OCc4cccc(F)c4)c(Cl)c3)c2c1 [VIII-56] |
| 13 nM | 15 nM | 35 nM |  |  |  | CC#C/C(=N\OC[C@@H]1COCCN1)c1ccc2ncnc(Nc3ccc(OCc4ccccn4)c(Cl)c3)c2c1 [VIII-169] |
| 4.7 nM | 7.3 nM | 20 nM |  |  |  | CC#C/C(=N\OCCNC)c1ccc2ncnc(Nc3ccc(OCc4ccccn4)c(Cl)c3)c2c1 [VIII-182] |
|  |  |  | 22 nM | 22 nM | 12 nM | CC#CC(=NOCCNCC(C)CO)c1ccc2ncnc(Nc3ccc(OCc4cccc(F)c4)c(Cl)c3)c2c1 (stereo not drawn) [VIII-62] |
|  |  |  | 37 nM | 55 nM | 15 nM | CC#C/C(=N\OC[C@H]1CNCC(=O)N1)c1ccc2ncnc(Nc3ccc(OCc4cccc(F)c4)c(Cl)c3)c2c1 [VIII-111] |

| IC50 [1, 4] | IC50 [2, 4] | IC50 ([3]; Homo sapiens, BT-474, 72 h) | IC50 [1, 5] | IC50 [2, 6] | IC50 [3] | Structure (SMILES) |
| --- | --- | --- | --- | --- | --- | --- |
| 14 nM | 16 nM | 70 nM |  |  |  | CC#CC(=NOCC1CN(C)CCN1C)c1ccc2ncnc(Nc3ccc(OCc4ccccn4)c(Cl)c3)c2c1 (stereo not drawn) [VIII-172] |
| 6.8 nM | 12.5 nM | 12 nM |  |  |  | CC#C/C(=N\OCCNCCNS(C)(=O)=O)c1ccc2ncnc(Nc3ccc4c(cnn4Cc4cccc(F)c4)c3)c2c1 [VIII-185] |
| 24 nM | 38 nM |  |  |  | 31 nM | CNCCO/N=C(\C#CCOC)c1ccc2ncnc(Nc3ccc(OCc4cccc(F)c4)c(Cl)c3)c2c1 [VIII-123] |
| 19 nM | 26 nM | 29 nM |  |  |  | CC#C/C(=N\OCCNCCN(C)S(C)(=O)=O)c1ccc2ncnc(Nc3ccc4c(cnn4Cc4cccc(F)c4)c3)c2c1 [VIII-186] |
| 20 nM | 30 nM | 40 nM |  |  |  | CC#C/C(=N\OCCNC[C@H]1CCCO1)c1ccc2ncnc(Nc3ccc4c(cnn4Cc4cccc(F)c4)c3)c2c1 [VIII-188] |
|  |  | 32 nM | 50 nM | 46 nM |  | CC#CC(=NOC[C@@H]1CNCCO1)c1ccc2ncnc(Nc3ccc(OCc4cccc(F)c4)c(Cl)c3)c2c1 [VIII-32, 4-(3-chloro-4-(3-fluorobenzyloxy)phenylamino)-6-(1-((S)-morpholin-2-ylmethoxyimino)-2-butyn-1-yl)quinazoline dihydrochloride] |
|  |  |  | 57 nM | 69 nM | 37 nM | CC#C/C(=N\OC[C@H]1CNCCO1)c1ccc2ncnc(Nc3ccc(OCc4cccc(F)c4)c(Cl)c3)c2c1 [VIII-114] |
| 263 nM | 449 nM | 23 nM |  |  |  | CC#C/C(=N\OCC1COCCN1)c1ccc2ncnc(Nc3ccc(COc4cccc(F)c4)c(Cl)c3)c2c1 (stereo not drawn) [VIII-220] |
|  |  | 8 nM | 9.8 nM | 17.7 nM |  | CC#C/C(=N\OC[C@@H]1C[C@@H](O)CN1)c1ccc2ncnc(Nc3ccc(OCc4cccc(F)c4)c(Cl)c3)c2c1 [VIII-81] |
|  |  |  | 44 nM | 15 nM | 28 nM | CC#C/C(=N\OCCNC[C@H]1CCCO1)c1ccc2ncnc(Nc3ccc(OCc4cccc(F)c4)c(Cl)c3)c2c1 [VIII-48] |
| 253 nM | 217 nM | 6 nM |  |  |  | CC#C/C(=N\OCC(N)=O)c1ccc2ncnc(Nc3ccc(OCc4cccc(F)c4)c(Cl)c3)c2c1 [VIII-223] |
|  |  |  | 19 nM | 25 nM | 41 nM | CC#C/C(=N\OC1CNC1)c1ccc2ncnc(Nc3ccc(OCc4cccc(F)c4)c(Cl)c3)c2c1 [VIII-68] |
|  |  | 12 nM | 82 nM | 104 nM |  | CC#C/C(=N\OCCNC1CC1)c1ccc2ncnc(Nc3ccc(OCc4cccc(F)c4)c(Cl)c3)c2c1 [VIII-46] |
|  |  |  | 19 nM | 22 nM | 11 nM | CC#C/C(=N\OCCN1CCC(O)CC1)c1ccc2ncnc(Nc3ccc(OCc4cccc(F)c4)c(Cl)c3)c2c1 [VIII-97] |
| 5 nM | 5.6 nM | 19 nM |  |  |  | CC#CC(=NOCC1CNCCN1)c1ccc2ncnc(Nc3ccc(OCc4ccccn4)c(Cl)c3)c2c1 (stereo not drawn) [VIII-170] |
|  |  |  | 10 nM | 11 nM | 24 nM | CC#C/C(=N\OCCN)c1ccc2ncnc(Nc3ccc(OCc4cccc(F)c4)c(Cl)c3)c2c1 [VIII-42] |
| 26 nM | 20 nM | 45 nM |  |  |  | CC#C/C(=N\OCC1COCCN1)c1ccc2ncnc(Nc3ccc(S(=O)(=O)c4ccccc4)cc3)c2c1 (stereo not drawn) [VIII-219] |
| 12 nM | 10 nM | 45 nM |  |  |  | CC#C/C(=N\OCCN(C)CCOC)c1ccc2ncnc(Nc3ccc(OCc4ccccn4)c(Cl)c3)c2c1 [VIII-146] |
|  |  |  | 97 nM | 98 nM | 30 nM | CC#C/C(=N\OCCN(CC)CCOC)c1ccc2ncnc(Nc3ccc(OCc4cccc(F)c4)c(Cl)c3)c2c1 [VIII-65] |
